Measurements from ChEMBL document CHEMBL5233256, “Flavaglines as natural products targeting eIF4A and prohibitins: From traditional Chinese medicine to antiviral activity against coronaviruses” (Eur J Med Chem, 2020).

Experiments:
Hepatitis C virus = assay: Antiviral activity against HCV infected in human Huh-7.5.1 cells assessed as reduction in viral infection incubated for 48 hrs; assay type: functional, organism-based, Hepacivirus hominis; settings: Huh-7.5.1, 48 h
SARS-CoV-2 = assay: Antiviral activity against SARS-CoV-2 USA_WA1/2020 infected in African green monkey Vero E6 cells assessed as reduction in virus replication preincubated with cell for 2 hrs followed by viral infection for 1 hr and measured after 48 hrs by RT-qPCR method; assay type: functional; settings: Severe acute respiratory syndrome coronavirus 2, USA_WA1/2020, Vero C1008; time 51 hrs
Human coronavirus 229E = assay: Antiviral activity against hCoV-229E infected in human MRC5 cells incubated for 1 hr by crystal violet staining based plaque assay; assay type: functional, organism-based
[1] = system: Middle East respiratory syndrome-related coronavirus; assay: Antiviral activity against MERS-COV infected in human MRC5 cells incubated for 1 hr by crystal violet staining based plaque assay; assay type: functional, organism-based
Poliovirus 1 = assay: Antiviral activity against human poliovirus 1 infected in human MRC5 cells incubated for 1 hr by crystal violet staining based plaque assay; assay type: functional, organism-based; settings: Enterovirus C, MRC5, 1 h

Compound: COc1ccc([C@@]23Oc4cc(OC)cc(OC)c4[C@]2(O)[C@H](O)[C@H](C(=O)N(C)C)[C@H]3c2ccccc2)cc1 [ROCAGLAMIDE]
- EC50 (Hepatitis C virus): 4 nM

Compound: COc1cc2c(c(OC)n1)[C@]1(O)[C@H](O)[C@H](CN(C)C)[C@@H](c3ccccc3)[C@]1(c1ccc(C#N)cc1)O2 [ZOTATIFIN]
- IC90 (SARS-CoV-2): 37 nM

Compound: COC(=O)[C@H]1[C@@H](O)[C@@]2(O)c3c(OC)cc(O[C@@H]4O[C@@H]([C@H](O)CO)CO[C@H]4OC)cc3O[C@@]2(c2ccc(OC)cc2)[C@@H]1c1ccccc1 [SILVESTROL]
- EC50 (Human coronavirus 229E; MRC5, 1 h): 3 nM
- EC90 (Human coronavirus 229E; MRC5, time 1 hrs): 12 nM
- EC50 ([1]; MRC5, 1 h): 1.3 nM
- EC90 ([1]; MRC5, time 1 hrs): 27 nM
- EC50 (Poliovirus 1): 20 nM

Compound: COc1ccc([C@@]23Oc4cc(OC)cc(OC)c4[C@]2(O)c2nc4n(c(=O)c2[C@H]3c2ccccc2)CCC4)cc1
- EC50 (Hepatitis C virus): 0.04 nM
